Source: ChEMBL document CHEMBL3745593, “Medicinal Chemistry Approaches to Heart Regeneration” (J Med Chem, 2015)
pIC50: −log10 of the molar value.

Assays:
[1] = Induction of cardiogenesis in mouse embryonic stem cells assessed as enrichment of pacemaker like cardiomyocytes by patch clamp technique (reference value: 7%); format: functional, Embryonic stem cell
[2] = Induction of cardiogenesis in mouse embryonic stem cells assessed as enrichment of atrial like cardiomyocytes by patch clamp technique (reference value: 7%); format: functional, Embryonic stem cell
[3] = Suppression of cardiogenesis in mouse embryonic stem cells assessed as ventricular like cardiomyocytes by patch clamp technique (reference value: 86%); format: functional, Embryonic stem cell
[4] = Induction of cardiogenesis in mouse CGR8 cells assessed as cardiac troponin positive cells measured on day 5 +10+2 EB-derived cells by flow cytometry analysis (reference value: 11%); format: functional
Danio rerio = experiment: Inhibition of BMPR in zebra fish embryo assessed as dorsalization administered 3 hr post fertilization
[5] = Induction of cardiogenesis in human embryonic stem cells by DAPI staining based immunofluorescence method relative to control; format: functional, Embryonic stem cell
[6] = Induction of cardiogenesis in human embryonic stem cells assessed as as enrichment of pacemaker like cardiomyocytes (reference value: 21%); format: functional, Embryonic stem cell
Activin receptor type-1 = target: T1, Activin receptor type-1 (Homo sapiens, UniProt Q04771); experiment: Inhibition of human ALK2 in presence of (33P)gamma ATP
T1 sequence (Q04771 whole entry): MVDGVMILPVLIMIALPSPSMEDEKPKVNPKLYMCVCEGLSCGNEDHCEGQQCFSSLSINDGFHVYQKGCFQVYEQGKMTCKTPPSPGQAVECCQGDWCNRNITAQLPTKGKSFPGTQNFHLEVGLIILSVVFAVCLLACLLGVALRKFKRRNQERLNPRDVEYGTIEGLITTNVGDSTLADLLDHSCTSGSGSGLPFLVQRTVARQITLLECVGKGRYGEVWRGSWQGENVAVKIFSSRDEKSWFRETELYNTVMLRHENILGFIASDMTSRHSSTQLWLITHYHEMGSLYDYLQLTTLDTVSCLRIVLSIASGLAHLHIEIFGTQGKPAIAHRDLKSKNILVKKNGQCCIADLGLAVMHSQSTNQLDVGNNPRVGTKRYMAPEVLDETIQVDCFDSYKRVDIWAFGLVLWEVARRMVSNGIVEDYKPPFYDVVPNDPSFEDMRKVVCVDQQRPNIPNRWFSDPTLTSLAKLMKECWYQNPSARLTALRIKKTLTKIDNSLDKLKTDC

TGF-beta receptor type-1 = target: T2, TGF-beta receptor type-1 (Homo sapiens, UniProt P36897); experiment: Inhibition of human ALK5 in presence of (33P)gamma ATP
T2 sequence (P36897 whole entry): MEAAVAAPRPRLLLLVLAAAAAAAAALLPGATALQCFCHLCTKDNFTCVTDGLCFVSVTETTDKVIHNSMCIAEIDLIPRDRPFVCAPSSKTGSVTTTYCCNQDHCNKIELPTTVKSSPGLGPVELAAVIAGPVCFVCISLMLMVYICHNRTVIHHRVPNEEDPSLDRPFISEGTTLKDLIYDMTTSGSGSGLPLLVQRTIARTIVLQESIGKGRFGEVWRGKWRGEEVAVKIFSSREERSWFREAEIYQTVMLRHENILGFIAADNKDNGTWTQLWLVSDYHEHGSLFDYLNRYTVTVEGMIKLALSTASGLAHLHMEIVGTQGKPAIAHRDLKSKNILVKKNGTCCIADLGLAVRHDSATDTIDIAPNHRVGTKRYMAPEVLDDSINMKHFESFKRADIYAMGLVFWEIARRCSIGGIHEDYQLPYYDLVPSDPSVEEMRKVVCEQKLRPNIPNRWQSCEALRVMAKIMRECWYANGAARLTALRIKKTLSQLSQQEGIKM

[7] = target: Vascular endothelial growth factor receptor 2 (Homo sapiens, UniProt P35968); experiment: Inhibition of human KDR in presence of (33P)gamma ATP
Chain of Vascular endothelial growth factor receptor 2 (P35968 whole entry): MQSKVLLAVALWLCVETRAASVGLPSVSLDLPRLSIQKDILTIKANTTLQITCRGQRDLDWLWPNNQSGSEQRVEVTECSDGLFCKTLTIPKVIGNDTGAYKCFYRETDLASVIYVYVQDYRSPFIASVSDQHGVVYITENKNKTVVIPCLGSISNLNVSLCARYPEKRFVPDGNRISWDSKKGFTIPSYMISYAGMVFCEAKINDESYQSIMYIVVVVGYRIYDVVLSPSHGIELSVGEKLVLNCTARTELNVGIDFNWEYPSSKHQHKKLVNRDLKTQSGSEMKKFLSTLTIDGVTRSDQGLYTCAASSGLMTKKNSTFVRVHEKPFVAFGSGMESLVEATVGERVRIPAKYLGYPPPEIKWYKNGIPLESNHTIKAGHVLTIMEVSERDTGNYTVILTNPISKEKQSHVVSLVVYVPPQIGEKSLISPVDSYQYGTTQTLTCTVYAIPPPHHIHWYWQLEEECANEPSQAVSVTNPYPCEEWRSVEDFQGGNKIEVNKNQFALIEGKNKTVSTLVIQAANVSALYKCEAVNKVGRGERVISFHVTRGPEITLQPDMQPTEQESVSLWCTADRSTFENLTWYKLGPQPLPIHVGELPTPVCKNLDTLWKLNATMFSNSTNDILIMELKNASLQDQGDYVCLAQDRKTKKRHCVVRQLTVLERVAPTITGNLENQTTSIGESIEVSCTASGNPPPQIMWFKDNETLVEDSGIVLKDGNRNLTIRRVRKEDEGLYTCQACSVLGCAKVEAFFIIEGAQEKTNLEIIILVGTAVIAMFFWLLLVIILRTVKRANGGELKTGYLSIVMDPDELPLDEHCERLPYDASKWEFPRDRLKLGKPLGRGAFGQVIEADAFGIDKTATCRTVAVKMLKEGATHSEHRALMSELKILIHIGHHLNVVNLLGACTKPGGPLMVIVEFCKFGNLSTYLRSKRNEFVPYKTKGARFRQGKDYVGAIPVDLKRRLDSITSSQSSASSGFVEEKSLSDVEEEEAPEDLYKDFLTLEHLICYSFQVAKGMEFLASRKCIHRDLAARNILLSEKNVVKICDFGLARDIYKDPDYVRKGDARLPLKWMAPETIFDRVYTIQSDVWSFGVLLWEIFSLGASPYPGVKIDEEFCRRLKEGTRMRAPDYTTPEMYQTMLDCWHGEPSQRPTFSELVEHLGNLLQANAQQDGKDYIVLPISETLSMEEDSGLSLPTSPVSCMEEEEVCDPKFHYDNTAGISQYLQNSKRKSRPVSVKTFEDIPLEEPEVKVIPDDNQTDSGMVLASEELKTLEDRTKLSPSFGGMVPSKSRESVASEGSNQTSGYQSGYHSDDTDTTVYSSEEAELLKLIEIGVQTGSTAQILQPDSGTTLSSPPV

SMILES: CCn1c(=O)[nH]c2ccccc21
- Activity [1]: 58%
- Activity [2]: 21%
- Activity [3]: 21%
- Activity [4]: 59%

SMILES: c1ccc2c(-c3cnn4cc(-c5ccc(N6CCNCC6)cc5)cnc34)ccnc2c1
- EC100 (Danio rerio): 3 µM

SMILES: C[S+]([O-])c1ccc(-c2nc(-c3ccc(F)cc3)c(-c3ccncc3)[nH]2)cc1 (configuration not stated) [SB-203580]
- fold change (FC) [5]: 2.5

SMILES: COc1cc2ncnc(Nc3cccc(Cl)c3)c2cc1OC [TYRPHOSTIN AG-1478]
- Activity [6]: 52%

SMILES: CC(C)Oc1ccc(-c2cnc3c(-c4ccnc5ccccc45)cnn3c2)cc1
- EC100 (Danio rerio): 0.2 µM
- pIC50 (Activin receptor type-1): 7.00

SMILES: c1cc(-c2cnn3cc(-c4ccc(OCCN5CCCCC5)cc4)cnc23)ccn1 [DORSOMORPHIN]
- pIC50 (TGF-beta receptor type-1): 5.00
- pIC50 [7]: 6.66
- EC100 (Danio rerio): 2.5 µM
